Test results: patent publication US12642771B2, “Compositions comprising PGI2-receptor agonists and processes for the preparation thereof” (Arena Pharmaceuticals, Inc., priority 2017, dated 2026)

How the values were obtained:
[1] = Release (dissolution) profile of modified-release tablets, USP Apparatus 1 (baskets) at 100 rpm, 500 mL aqueous sodium phosphate 0.05 M, pH 6.8; type: physicochemical
Text: USP Apparatus 1 (BASKETS) is described, for example, in the United States Pharmacopeial Convention, Feb. 1, 2012, Chapter <711> (“Dissolution”), incorporated by reference herein in its entirety. See http://www.usp.org/sites/default/files/usp_pdf/EN/USPNF/revisions/m99470-gc_711.pdf. The USP Apparatus 1 (baskets) assembly consists of the following: a vessel, which may be covered, made of glass or other inert, transparent material; a motor; a metallic drive shaft, and a cylindrical basket. The materials should not sorb, react, or interfere with the specimen being tested. The vessel is partially immersed in a suitable water bath of any convenient size or heated by a suitable device such as a heating jacket. The water bath or heating device permits holding the temperature inside the vessel at 37±0.5° during the test and keeping the bath fluid in constant, smooth motion. No part of the assembly, including the environment in which the assembly is placed, contributes significant motion, agitation, or vibration beyond that due to the smoothly rotating stirring element. An apparatus that permits observation of the specimen and stirring element during the test is preferable. The vessel is cylindrical, with a hemispherical bottom and with one of the following dimensions and capacities: for a nominal capacity of 1 L, the height is 160 mm to 210 mm and its inside diameter is 98 mm to 106 mm; for a nominal capacity of 2 L, the height is 280 mm to 300 mm and its inside diameter is 98 mm to 106 mm; and for a nominal capacity of 4 L, the height is 280 mm to 300 mm and its inside diameter is 145 mm to 155 mm. Its sides are flanged at the top. A fitted cover may be used to retard evaporation. If a cover is used, it provides sufficient openings to allow ready insertion of the thermometer and withdrawal of specimens. The shaft is positioned so that its axis is not more than 2 mm at any point from the vertical axis of the vessel and rotates smoothly and without significant wobble that could affect the results. The vertical center line of the blade passes through the axis of the shaft so that the bottom of the blade is flush with the bottom of the shaft. A distance of 25±2 mm between the bottom of the blade and the inside bottom of the vessel is maintained during the test. The metallic or suitably inert, rigid blade and shaft comprise a single entity. A suitable two-part detachable design may be used provided the assembly remains firmly engaged during the test. […]
The release profiles for modified-release tablets were measured using USP Apparatus 1 (baskets).
All release profiles disclosed in Tables 6a-6d were measured with USP Apparatus 1 (baskets) at 100 rpm in 500 mL of aqueous sodium phosphate at a concentration of 0.05 M (pH=6.8). […]

[2] = Example 7B: open-label multiple-dose escalation pharmacokinetic study of modified-release tablet, fasted or fed healthy subjects; type: in vivo, human
Experimental: B. A second open-label, non-randomized pharmacokinetic study was conducted in healthy subjects. Fasted (cohort 1; n=19) or fed state (cohort 2, n=18) subjects received a modified-release tablet formulation of Compound 1 in a dose escalation sequence over 25 days (once daily dosing started at 0.06 mg and was slowly titrated, depending upon individual subject tolerability, by additional 0.06 mg dose increments every 5 days up to 0.3 mg once daily).
Each subject received a once daily dose of the modified-release Compound 1 for 5 days, with up to four sequential dose escalations every 5 days: • Regimen A (0.06 mg modified-release Compound 1): 1×0.06 mg Compound 1 modified-release tablet for 5 days • Regimen B (0.12 mg modified-release Compound 1): 2×0.06 mg Compound 1 modified-release tablet for 5 days • Regimen C (0.18 mg modified-release Compound 1): 3×0.06 mg Compound 1 modified-release tablet for 5 days • Regimen D (0.24 mg modified-release Compound 1): 4×0.06 mg Compound 1 modified-release tablet for 5 days • Regimen E (0.30 mg modified-release Compound 1): 5×0.06 mg Compound 1 modified-release tablet for 5 days

[3] = Example 8: 22-week randomized, double-blind, placebo-controlled study (PVR, 6MWD, plasma levels, adverse events); type: in vivo, human
Experimental: A 22-week randomized, double-blind, placebo-controlled study with a dose titration period of up to 9 weeks was conducted. Sixty-one patients were randomized 2:1 Compound 1 to placebo. Right Heart Catheterization (RHC) measurements were obtained prior to study Day 1 of the dose titration period and at Week 22. The following values were obtained and recorded: pulmonary artery pressure (PAP) (systolic, diastolic, and mean), heart rate (HR), right atrial pressure (RAP), pulmonary capillary wedge pressure (PCWP) right ventricular pressure (RVP) and cardiac output (CO), pulmonary vascular resistance (PVR), arterial and mixed venous oxygen saturation […] (if applicable). Systemic vascular resistance (SVR) was estimated from blood pressure measurements. The 6-minute walk test (6MWD) was conducted according to the modified guidelines issued by the American Thoracic Society. See Am J Respir Crit Care Med 166:111-117, 2002.
Primary efficacy endpoints for the study were: a) change from baseline in PVR after 22 weeks of treatment, and b) change from baseline in 6 MWD after 22 weeks of treatment.
Compound 1 was administered as a capsule in 0.01, 0.02, 0.03, 0.04, and 0.10 mg dose strengths. The formulation was supplied as a liquid-filled, size 4, hard-gelatin capsule containing Compound 1, polyoxyl 40 hydrogenated castor oil (Kolliphor® RH40) NF, butylated hydroxytoluene (BHT)NF, and colloidal silicon dioxide NF.
The starting dose of Compound 1 was 0.01 mg twice daily. The dose of Compound 1 was titrated according to patient tolerability. If the initial dose was tolerated (0.01 mg twice daily), then the dose was increased once a week in the following fashion: 0.02 mg twice daily, 0.03 mg twice daily, 0.04 mg twice daily, 0.06 mg twice daily, 0.08 mg, 0.1 mg twice daily, 0.2 mg twice daily and 0.3 mg twice daily. The dose was optionally escalated to a possible maximum total daily dose of 0.6 mg (0.3 mg twice daily), pending tolerability.

[4] = Plasma pharmacokinetics of Compound 1 stated in background and description (initial clinical studies); type: in vivo; details: immediate-release capsule formulation

In the case of `O=C(O)COC[C@H]1CC[C@H](COC(=O)N(c2ccccc2)c2ccc(Cl)cc2)CC1` [Compound 1, 2-(((1r,4r)-4-(((4-chlorophenyl)(phenyl)carbamoyloxy)methyl)cyclohexyl)methoxy)acetic acid], the “difference of % by weight released, initial profile vs after storage” value ([1]; tablets 0.05 mg and 0.5 mg Compound 1 (FIGS. 12, 13), storage at 40° C. and 75% RH for six months, any time point equal to or greater than 2 hours) is reported as at most 10%, the “release rate relative to modified-release capsule” value ([1]; tablets 0.5 mg Compound 1 with 40% HPMC K4M CR, 100 mg, 7 kP) is reported as “faster than that of the modified-release capsule” and the “release rate relative to modified-release capsule” value ([1]; tablets with 30% HPMC K4M and 20% HPMC K100 LVCR, wet granulation) is reported as “slightly faster than that of the modified-release capsule”. The “release rate relative to modified-release capsule” value ([1]; tablets with 40% HPMC K4M and 10% HPMC K100 LVCR, wet granulation) was “faster than that of the modified-release capsule at time points <6 hrs but slower than that of the modified-release capsule at time points 6 hrs”, the “Exposure in the fed and fasted states” value ([2]; after single administration and at steady state) was “similar” and the “increase of Cmax at steady state, female vs male subjects” value ([2]; modified-release tablet) was “greater than 42%”. For the same compound, the “mean plasma exposure measures, females compared to males” value ([2]; modified-release tablet once daily) was “Somewhat higher”, the peak-trough fluctuation ([2]; modified-release tablet once daily, across dose levels) was “low peak-trough fluctuation” and the “Tmax, fed state” value ([2]; modified-release tablet, fed vs fasted) was “delayed in the fed state”. For the same compound, the Adverse events ([3]; 22-week study) was “consistent with other prostacyclin treatments”, the “6-minute walk distance (6MWD)” value ([3]; after 22 weeks of treatment) was “numerical improvement” and the “change from baseline in pulmonary vascular resistance (PVR) compared to placebo” value ([3]; after 22 weeks of treatment, capsule twice daily, titrated up to 0.3 mg twice daily) was “statistically significant change from baseline”. The “mean pre-dose and 4-hours post-dose plasma levels” value ([3]; immediate-release capsule twice daily, titrated, patients) was “appear similar to those previously observed in healthy human subjects”, the “correlation of 4 hour post-dose plasma concentrations with percent change from baseline in PVR and 6MWD” value ([3]; in vivo) was “strong and positive correlation” and the “Cmax and peak-trough fluctuation” value [4] was “high Cmax and peak-trough fluctuation”.
